Measurements published in patent US20230312478A1, “HERBICIDAL COMPOUNDS” (SYNGENTA CROP PROTECTION AG, priority 2020, published 2023).

Assays:
Format in all cases: in vivo
Settings in all cases: 250 g/ha, evaluated visually after 13 days, scale 0-5
[1] = system: Amaranthus retroflexus (AMARE); assay: Herbicidal efficacy, application post-emergence
Description: (§1) Seeds of a variety of test species [Ipomoea hederacea (IPOHE); Zea mays (ZEAMX); Echinochloa crus-galli (ECHCG); Setaria faberi (SETFA); Abutilon theophrasti (ABUTH); Amaranthus retroflexus (AMARE)] were sown in standard sterilised soil in pots. After cultivation for one day (pre-emergence) or after 8 days cultivation (post-emergence) under controlled conditions in a glasshouse (at 24/16° C., day/night; 14 hours light; 65 % humidity), the plants were sprayed with an aqueous spray solution derived from the formulation of the technical active ingredient in acetone / water (50:50) solution containing 0.5% Tween 20 (polyoxyethelyene sorbitan monolaurate, CAS RN 9005-64-5), subsequently diluted in water, and sprayed to give the stated application rate.
(§2) The test plants were then grown under controlled conditions in a glasshouse (at 24/16° C., day/night; 14 hours light; 65 % humidity) and watered twice daily.
(§3) After 13 days for pre- and post-emergence, the test was evaluated visually for percentage phytotoxicity to the plant (where 5 = total damage to plant; 0 = no damage to plant).

[2] = system: Echinochloa crus-galli (ECHCG); assay: Herbicidal efficacy, application post-emergence
Description: as §1, §2, §3

Zea mays (ZEAMX) [3] = assay: Herbicidal efficacy, application post-emergence
Description: as §1, §2, §3

Setaria faberi (SETFA) [4] = assay: Herbicidal efficacy, application post-emergence
Description: as §1, §2, §3

[5] = system: Ipomoea hederacea (IPOHE); assay: Herbicidal efficacy, application post-emergence
Description: as §1, §2, §3

[6] = system: Amaranthus retroflexus (AMARE); assay: Herbicidal efficacy, application pre-emergence; set-up: key: 5 = total damage to plant; 0 = no damage to plant
Description: as §1, §2, §3

[7] = system: Abutilon theophrasti (ABUTH); assay: Herbicidal efficacy, application pre-emergence; set-up: key: 5 = total damage to plant; 0 = no damage to plant
Description: as §1, §2, §3

[8] = system: Echinochloa crus-galli (ECHCG); assay: Herbicidal efficacy, application pre-emergence; set-up: key: 5 = total damage to plant; 0 = no damage to plant
Description: as §1, §2, §3

Setaria faberi (SETFA) [9] = assay: Herbicidal efficacy, application pre-emergence; set-up: key: 5 = total damage to plant; 0 = no damage to plant
Description: as §1, §2, §3

[10] = system: Ipomoea hederacea (IPOHE); assay: Herbicidal efficacy, application pre-emergence; set-up: key: 5 = total damage to plant; 0 = no damage to plant
Description: as §1, §2, §3

[11] = system: Abutilon theophrasti (ABUTH); assay: Herbicidal efficacy, application post-emergence; set-up: key: 5 = total damage to plant; 0 = no damage to plant
Description: as §1, §2, §3

Zea mays (ZEAMX) [12] = assay: Herbicidal efficacy, application pre-emergence
Description: as §1, §2, §3

Cc1c(F)cccc1NC(=O)C1C(=O)N(C)CC1c1cc(C)n(C(F)F)n1 (stereo not drawn) [Compound 9, 4-[1-(difluoromethyl)-5-methyl-pyrazol-3-yl]-N-(3-fluoro-2-methyl-phenyl)-1-methyl-2-oxo-pyrrolidine-3-carboxamide]
phytotoxicity to the plant, AMARE [1]: 3 | phytotoxicity to the plant, ECHCG [2]: 4 | phytotoxicity to the plant, ZEAMX (Zea mays (ZEAMX) [3]): 3 | phytotoxicity to the plant, SETFA (Setaria faberi (SETFA) [4]): 4 | phytotoxicity to the plant, IPOHE [5]: 3 | phytotoxicity to the plant, AMARE [6]: 1 | phytotoxicity to the plant, ABUTH [7]: 1 | phytotoxicity to the plant, ECHCG [8]: 5 | phytotoxicity to the plant, SETFA (Setaria faberi (SETFA) [9]): 5 | phytotoxicity to the plant, IPOHE [10]: 1 | phytotoxicity to the plant, ABUTH [11]: 0 | phytotoxicity to the plant, ZEAMX (Zea mays (ZEAMX) [12]): 3

CCc1cc(C2CN(C)C(=O)C2C(=O)Nc2cccc(F)c2C)nn1C(F)F (stereo not drawn) [Compound 10, 4-[1-(difluoromethyl)-5-ethyl-pyrazol-3-yl]-N-(3-fluoro-2-methylphenyl)-1-methyl-2-oxo-pyrrolidine-3-carboxamide]
phytotoxicity to the plant, AMARE [1]: 1 | phytotoxicity to the plant, ECHCG [2]: 4 | phytotoxicity to the plant, ZEAMX (Zea mays (ZEAMX) [3]): 4 | phytotoxicity to the plant, SETFA (Setaria faberi (SETFA) [4]): 4 | phytotoxicity to the plant, IPOHE [5]: 4 | phytotoxicity to the plant, AMARE [6]: 1 | phytotoxicity to the plant, ABUTH [7]: 2 | phytotoxicity to the plant, ECHCG [8]: 5 | phytotoxicity to the plant, SETFA (Setaria faberi (SETFA) [9]): 5 | phytotoxicity to the plant, IPOHE [10]: 2 | phytotoxicity to the plant, ABUTH [11]: 0 | phytotoxicity to the plant, ZEAMX (Zea mays (ZEAMX) [12]): 4

Cc1cc(C2CN(C)C(=O)C2C(=O)Nc2cccc(F)c2F)nn1C(F)F (stereo not drawn) [Compound 33, 4-[1-(difluoromethyl)-5-methyl-pyrazol-3-yl]-N-(2,3-difluorophenyl)-1-methyl-2-oxo-pyrrolidine-3-carboxamide]
phytotoxicity to the plant, AMARE [1]: 2 | phytotoxicity to the plant, ECHCG [2]: 4 | phytotoxicity to the plant, ZEAMX (Zea mays (ZEAMX) [3]): 3 | phytotoxicity to the plant, SETFA (Setaria faberi (SETFA) [4]): 4 | phytotoxicity to the plant, IPOHE [5]: 4 | phytotoxicity to the plant, AMARE [6]: 2 | phytotoxicity to the plant, ABUTH [7]: 1 | phytotoxicity to the plant, ECHCG [8]: 5 | phytotoxicity to the plant, SETFA (Setaria faberi (SETFA) [9]): 5 | phytotoxicity to the plant, IPOHE [10]: 1 | phytotoxicity to the plant, ABUTH [11]: 1 | phytotoxicity to the plant, ZEAMX (Zea mays (ZEAMX) [12]): 4

CCc1cc(C2CN(C)C(=S)C2C(=O)Nc2cccc(F)c2F)nn1C(F)F (stereo not drawn) [Compound 38, 4-[1-(difluoromethyl)-5-ethyl-pyrazol-3-yl]-N-(2,3-difluorophenyl)-1-methyl-2-thioxo-pyrrolidine-3-carboxamide]
phytotoxicity to the plant, AMARE [1]: 1 | phytotoxicity to the plant, ECHCG [2]: 4 | phytotoxicity to the plant, ZEAMX (Zea mays (ZEAMX) [3]): 3 | phytotoxicity to the plant, SETFA (Setaria faberi (SETFA) [4]): 4 | phytotoxicity to the plant, IPOHE [5]: 4 | phytotoxicity to the plant, AMARE [6]: 0 | phytotoxicity to the plant, ABUTH [7]: 0 | phytotoxicity to the plant, ECHCG [8]: 5 | phytotoxicity to the plant, SETFA (Setaria faberi (SETFA) [9]): 5 | phytotoxicity to the plant, IPOHE [10]: 2 | phytotoxicity to the plant, ABUTH [11]: 0 | phytotoxicity to the plant, ZEAMX (Zea mays (ZEAMX) [12]): 4

Cc1cc(C2CN(C)C(=O)C2C(=O)Nc2ccc(F)cc2F)nn1C(F)F (stereo not drawn) [Compound 57, 4-[1-(difluoromethyl)-5-methyl-pyrazol-3-yl]-N-(2,4-difluorophenyl)-1-methyl-2-oxo-pyrrolidine-3-carboxamide]
phytotoxicity to the plant, AMARE [1]: 1 | phytotoxicity to the plant, ECHCG [2]: 4 | phytotoxicity to the plant, ZEAMX (Zea mays (ZEAMX) [3]): 2 | phytotoxicity to the plant, SETFA (Setaria faberi (SETFA) [4]): 4 | phytotoxicity to the plant, IPOHE [5]: 3 | phytotoxicity to the plant, AMARE [6]: 1 | phytotoxicity to the plant, ABUTH [7]: 1 | phytotoxicity to the plant, ECHCG [8]: 5 | phytotoxicity to the plant, SETFA (Setaria faberi (SETFA) [9]): 5 | phytotoxicity to the plant, IPOHE [10]: 1 | phytotoxicity to the plant, ABUTH [11]: 1 | phytotoxicity to the plant, ZEAMX (Zea mays (ZEAMX) [12]): 2

CCc1cc(C2CN(C)C(=O)C2C(=O)Nc2ccc(F)cc2F)nn1C(F)F (stereo not drawn) [Compound 58, 4-[1-(difluoromethyl)-5-ethyl-pyrazol-3-yl]-N-(2,4-difluorophenyl)-1-methyl-2-oxo-pyrrolidine-3-carboxamide]
phytotoxicity to the plant, AMARE [1]: 1 | phytotoxicity to the plant, ECHCG [2]: 4 | phytotoxicity to the plant, ZEAMX (Zea mays (ZEAMX) [3]): 2 | phytotoxicity to the plant, SETFA (Setaria faberi (SETFA) [4]): 4 | phytotoxicity to the plant, IPOHE [5]: 3 | phytotoxicity to the plant, AMARE [6]: 0 | phytotoxicity to the plant, ABUTH [7]: 0 | phytotoxicity to the plant, ECHCG [8]: 5 | phytotoxicity to the plant, SETFA (Setaria faberi (SETFA) [9]): 5 | phytotoxicity to the plant, IPOHE [10]: 1 | phytotoxicity to the plant, ABUTH [11]: 0 | phytotoxicity to the plant, ZEAMX (Zea mays (ZEAMX) [12]): 3

Cc1c(Br)c(C2CN(C)C(=O)C2C(=O)Nc2ccc(F)cc2F)nn1C(F)F (stereo not drawn) [Compound 59, 4-[4-bromo-1-(difluoromethyl)-5-methyl-pyrazol-3-yl]-N-(2,4-difluorophenyl)-1-methyl-2-oxo-pyrrolidine-3-carboxamide]
phytotoxicity to the plant, AMARE [1]: 1 | phytotoxicity to the plant, ECHCG [2]: 4 | phytotoxicity to the plant, ZEAMX (Zea mays (ZEAMX) [3]): 3 | phytotoxicity to the plant, SETFA (Setaria faberi (SETFA) [4]): 4 | phytotoxicity to the plant, IPOHE [5]: 1 | phytotoxicity to the plant, AMARE [6]: 0 | phytotoxicity to the plant, ABUTH [7]: 1 | phytotoxicity to the plant, ECHCG [8]: 5 | phytotoxicity to the plant, SETFA (Setaria faberi (SETFA) [9]): 5 | phytotoxicity to the plant, IPOHE [10]: 0 | phytotoxicity to the plant, ABUTH [11]: 0 | phytotoxicity to the plant, ZEAMX (Zea mays (ZEAMX) [12]): 1

Cc1cc(C2CN(C)C(=S)C2C(=O)Nc2ccc(F)cc2F)nn1C(F)F (stereo not drawn) [Compound 61, 4-[1-(difluoromethyl)-5-methyl-pyrazol-3-yl]-N-(2,4-difluorophenyl)-1-methyl-2-thioxo-pyrrolidine-3-carboxamide]
phytotoxicity to the plant, AMARE [1]: 1 | phytotoxicity to the plant, ECHCG [2]: 4 | phytotoxicity to the plant, ZEAMX (Zea mays (ZEAMX) [3]): 2 | phytotoxicity to the plant, SETFA (Setaria faberi (SETFA) [4]): 3 | phytotoxicity to the plant, IPOHE [5]: 1 | phytotoxicity to the plant, AMARE [6]: 2 | phytotoxicity to the plant, ABUTH [7]: 0 | phytotoxicity to the plant, ECHCG [8]: 5 | phytotoxicity to the plant, SETFA (Setaria faberi (SETFA) [9]): 5 | phytotoxicity to the plant, IPOHE [10]: 0 | phytotoxicity to the plant, ABUTH [11]: 0 | phytotoxicity to the plant, ZEAMX (Zea mays (ZEAMX) [12]): 1

CCc1cc(C2CN(C)C(=S)C2C(=O)Nc2ccc(F)cc2F)nn1C(F)F (stereo not drawn) [Compound 62, 4-[1-(difluoromethyl)-5-ethyl-pyrazol-3-yl]-N-(2,4-difluorophenyl)-1-methyl-2-thioxo-pyrrolidine-3-carboxamide]
phytotoxicity to the plant, AMARE [1]: 1 | phytotoxicity to the plant, ECHCG [2]: 4 | phytotoxicity to the plant, ZEAMX (Zea mays (ZEAMX) [3]): 1 | phytotoxicity to the plant, SETFA (Setaria faberi (SETFA) [4]): 4 | phytotoxicity to the plant, IPOHE [5]: 1 | phytotoxicity to the plant, AMARE [6]: 0 | phytotoxicity to the plant, ABUTH [7]: 0 | phytotoxicity to the plant, ECHCG [8]: 5 | phytotoxicity to the plant, SETFA (Setaria faberi (SETFA) [9]): 5 | phytotoxicity to the plant, IPOHE [10]: 0 | phytotoxicity to the plant, ABUTH [11]: 1 | phytotoxicity to the plant, ZEAMX (Zea mays (ZEAMX) [12]): 2

Cc1cc(C2CN(C)C(=O)C2C(=O)Nc2ccc(F)nc2F)nn1C(F)F (stereo not drawn) [Compound 81, 4-[1-(difluoromethyl)-5-methyl-pyrazol-3-yl]-N-(2,6-difluoro-3-pyridyl)-1-methyl-2-oxo-pyrrolidine-3-carboxamide]
phytotoxicity to the plant, AMARE [1]: 2 | phytotoxicity to the plant, ECHCG [2]: 4 | phytotoxicity to the plant, ZEAMX (Zea mays (ZEAMX) [3]): 4 | phytotoxicity to the plant, SETFA (Setaria faberi (SETFA) [4]): 4 | phytotoxicity to the plant, IPOHE [5]: 1 | phytotoxicity to the plant, AMARE [6]: 0 | phytotoxicity to the plant, ABUTH [7]: 0 | phytotoxicity to the plant, ECHCG [8]: 5 | phytotoxicity to the plant, SETFA (Setaria faberi (SETFA) [9]): 5 | phytotoxicity to the plant, IPOHE [10]: 2 | phytotoxicity to the plant, ABUTH [11]: 0 | phytotoxicity to the plant, ZEAMX (Zea mays (ZEAMX) [12]): 2

CCc1cc(C2CN(C)C(=O)C2C(=O)Nc2ccc(F)nc2F)nn1C(F)F (stereo not drawn) [Compound 82, 4-[1-(difluoromethyl)-5-ethyl-pyrazol-3-yl]-N-(2,6-difluoro-3-pyridyl)-1-methyl-2-oxo-pyrrolidine-3-carboxamide]
phytotoxicity to the plant, AMARE [1]: 1 | phytotoxicity to the plant, ECHCG [2]: 4 | phytotoxicity to the plant, ZEAMX (Zea mays (ZEAMX) [3]): 4 | phytotoxicity to the plant, SETFA (Setaria faberi (SETFA) [4]): 4 | phytotoxicity to the plant, IPOHE [5]: 4 | phytotoxicity to the plant, AMARE [6]: 1 | phytotoxicity to the plant, ABUTH [7]: 1 | phytotoxicity to the plant, ECHCG [8]: 5 | phytotoxicity to the plant, SETFA (Setaria faberi (SETFA) [9]): 5 | phytotoxicity to the plant, IPOHE [10]: 3 | phytotoxicity to the plant, ABUTH [11]: 1 | phytotoxicity to the plant, ZEAMX (Zea mays (ZEAMX) [12]): 3
